From ChEMBL document CHEMBL4825686, “HTS-based discovery and optimization of novel positive allosteric modulators of the α7 nicotinic acetylcholine receptor” (Eur J Med Chem, 2021)
Converted amounts (≈) assume the structure as drawn. Each block holds one compound with its values, some of them ahead of it. The source made the active and inactive calls. No cut-off for these calls is given here.

Tests used:
[1] = target: T1, Neuronal acetylcholine receptor subunit alpha-7 (Homo sapiens, UniProt P36544); test: Positive allosteric modulator activity at human alpha7 nAChR expressed in Flp-In-HEK293 cells co-expressing RIC-3 assessed as potentiation of PNU282987-induced calcium influx at 10 uM measured after 10 mins by FLIPR assay; type: cell-based
T1 sequence (P36544 whole entry): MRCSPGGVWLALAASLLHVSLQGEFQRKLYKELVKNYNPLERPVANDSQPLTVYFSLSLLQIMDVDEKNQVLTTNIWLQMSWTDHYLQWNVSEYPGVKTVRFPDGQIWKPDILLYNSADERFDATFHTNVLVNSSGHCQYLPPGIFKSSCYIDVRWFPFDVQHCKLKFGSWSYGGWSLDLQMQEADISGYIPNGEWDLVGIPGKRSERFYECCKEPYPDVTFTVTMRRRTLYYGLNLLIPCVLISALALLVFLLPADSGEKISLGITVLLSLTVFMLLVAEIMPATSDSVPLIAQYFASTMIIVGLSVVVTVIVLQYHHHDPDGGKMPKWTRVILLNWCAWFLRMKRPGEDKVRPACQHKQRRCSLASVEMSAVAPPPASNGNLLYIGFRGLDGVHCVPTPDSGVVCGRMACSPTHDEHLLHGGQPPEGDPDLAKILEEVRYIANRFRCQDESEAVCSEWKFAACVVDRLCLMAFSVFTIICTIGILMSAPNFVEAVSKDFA

[2] = Drug uptake in NMRI mouse brain at 3 mg/kg, ip measured after 1 hr by HPLC-MS/MS analysis; type: ADME, organism-based; conditions: read-out: Ct
[3] = test system: Mus musculus; test: Cognitive enhancing effect in scopolamine-induced amnesia NMRI mouse model assessed as increase in recognition index at 1 to 10 mg/kg, ip administered 30 mins prior to scopolamine injection by Y-maze test; type: functional, organism-based; conditions: dose 1-10 mg/kg
[4] = Ratio of drug level in NMRI mouse brain to plasma at 3 mg/kg, ip measured after 1 hr by HPLC-MS/MS analysis; type: ADME, organism-based; conditions: read-out: BPR
[5] = Drug uptake in NMRI mouse brain at 10 mg/kg, ip measured after 1 hr by HPLC-MS/MS analysis; type: ADME, organism-based; conditions: read-out: Ct
[6] = Metabolic stability in Wistar rat liver microsomes assessed as intrinsic clearance at 1 uM measured per mg protein upto 40 mins; type: ADME, Microsome; conditions: read-out: CLH
[7] = Ratio of drug level in NMRI mouse brain to plasma at 10 mg/kg, ip measured after 1 hr by HPLC-MS/MS analysis; type: ADME, organism-based; conditions: read-out: BPR
[8] = Metabolic stability in human liver microsomes assessed as intrinsic clearance at 1 uM measured per mg protein upto 40 mins; type: ADME, Microsome; conditions: read-out: CLH
[9] = Plasma concentration in NMRI mouse at 3 mg/kg, ip measured after 1 hr by HPLC-MS/MS analysis; type: ADME, organism-based
[10] = target: T1, Neuronal acetylcholine receptor subunit alpha-7; test: Positive allosteric modulator activity at human alpha7 nAChR expressed in Flp-In-HEK293 cells co-expressing RIC-3 assessed as potentiation of PNU282987-induced calcium influx measured after 10 mins by FLIPR assay; type: cell-based, Flp-In-293; conditions: read-out: EC50
[11] = Ratio of drug level in NMRI mouse brain to plasma at 1 mg/kg, ip measured after 1 hr by HPLC-MS/MS analysis; type: ADME, organism-based; conditions: read-out: BPR
[12] = Kinetic solubility of compound; type: physicochemical; conditions: read-out: Kinetic_solubility
[13] = Plasma concentration in NMRI mouse at 10 mg/kg, ip measured after 1 hr by HPLC-MS/MS analysis; type: ADME, organism-based
[14] = Plasma concentration in NMRI mouse at 1 mg/kg, ip measured after 1 hr by HPLC-MS/MS analysis; type: ADME, organism-based
[15] = Metabolic stability in NMRI mouse liver microsomes assessed as intrinsic clearance at 1 uM measured per mg protein upto 40 mins; type: ADME, Microsome; conditions: read-out: CLH
[16] = Drug uptake in NMRI mouse brain at 1 mg/kg, ip measured after 1 hr by HPLC-MS/MS analysis; type: ADME, organism-based; conditions: read-out: Ct
[17] = target: T1, Neuronal acetylcholine receptor subunit alpha-7; test: Positive allosteric modulator activity at human alpha7 nAChR expressed in Flp-In-HEK293 cells co-expressing RIC-3 assessed as potentiation of PNU282987-induced calcium influx at 1 uM measured after 10 mins by FLIPR assay; type: cell-based; conditions: Flp-In-293
[18] = Mutagenicity in Salmonella typhimurium TA98 in presence of rat liver S9 fraction by AMES test; type: toxicity, subcellular; conditions: salmonella enterica subsp. enterica serovar typhimurium
[19] = Mutagenicity in Salmonella typhimurium TA98 in absence of rat liver S9 fraction by AMES test; type: toxicity; conditions: salmonella enterica subsp. enterica serovar typhimurium
[20] = Mutagenicity in Escherichia coli WP2 uvrA in presence of rat liver S9 fraction by AMES test; type: toxicity, subcellular
[21] = Mutagenicity in Salmonella typhimurium TA1537 in absence of rat liver S9 fraction by AMES test; type: toxicity; conditions: salmonella enterica subsp. enterica serovar typhimurium
[22] = Mutagenicity in Salmonella typhimurium TA1535 in absence of rat liver S9 fraction by AMES test; type: toxicity; conditions: salmonella enterica subsp. enterica serovar typhimurium
[23] = Mutagenicity in Escherichia coli WP2 uvrA in absence of rat liver S9 fraction by AMES test; type: toxicity
[24] = Mutagenicity in Salmonella typhimurium TA100 in presence of rat liver S9 fraction by AMES test; type: toxicity, subcellular; conditions: salmonella enterica subsp. enterica serovar typhimurium
[25] = Mutagenicity in Salmonella typhimurium TA1535 in presence of rat liver S9 fraction by AMES test; type: toxicity, subcellular; conditions: salmonella enterica subsp. enterica serovar typhimurium
[26] = Mutagenicity in Salmonella typhimurium TA1537 in presence of rat liver S9 fraction by AMES test; type: toxicity, subcellular; conditions: salmonella enterica subsp. enterica serovar typhimurium
[27] = Mutagenicity in Salmonella typhimurium TA100 in absence of rat liver S9 fraction by AMES test; type: toxicity; conditions: salmonella enterica subsp. enterica serovar typhimurium
[28] = Plasma concentration in Wistar rat at 10 mg/kg, ip measured after 35 mins by HPLC-MS/MS analysis; type: ADME, organism-based
[29] = test system: Rattus norvegicus; test: Cognitive enhancing effect in po dosed Hannover Wistar rat assessed as increase in novel object recognition index administered 30 mins prior to recognition trail by novel object recognition test; type: functional; conditions: 0.5 h, read-out: MED
[30] = Ratio of drug level in Wistar rat brain to plasma at 10 mg/kg, ip measured after 35 mins by HPLC-MS/MS analysis; type: ADME, organism-based; conditions: read-out: BPR
[31] = test system: Rattus norvegicus; test: Reversal of scopolamine induced amnesia in Lister Hooded rat at 0.3 to 10 mg/kg, po administered 25 mins prior to scopolamine injection and measured after 20 mins by rodent touch screen visual discrimination test; type: functional, organism-based; conditions: dose 0.3-10 mg/kg
[32] = Plasma concentration in Wistar rat at 1 mg/kg, ip measured after 35 mins by HPLC-MS/MS analysis; type: ADME, organism-based
[33] = Ratio of drug level in Wistar rat brain to plasma at 3 mg/kg, ip measured after 35 mins by HPLC-MS/MS analysis; type: ADME, organism-based; conditions: read-out: BPR
[34] = target: Sodium-dependent dopamine transporter (Homo sapiens) (UniProt Q01959); test: Displacement of [125I]RTI55 from human recombinant DAT expressed in CHO-S cells at 10 uM incubated for 3 hrs by radiometric scintillation counting analysis; type: cell-based
Sequence of Sodium-dependent dopamine transporter (Homo sapiens) (Q01959 whole entry): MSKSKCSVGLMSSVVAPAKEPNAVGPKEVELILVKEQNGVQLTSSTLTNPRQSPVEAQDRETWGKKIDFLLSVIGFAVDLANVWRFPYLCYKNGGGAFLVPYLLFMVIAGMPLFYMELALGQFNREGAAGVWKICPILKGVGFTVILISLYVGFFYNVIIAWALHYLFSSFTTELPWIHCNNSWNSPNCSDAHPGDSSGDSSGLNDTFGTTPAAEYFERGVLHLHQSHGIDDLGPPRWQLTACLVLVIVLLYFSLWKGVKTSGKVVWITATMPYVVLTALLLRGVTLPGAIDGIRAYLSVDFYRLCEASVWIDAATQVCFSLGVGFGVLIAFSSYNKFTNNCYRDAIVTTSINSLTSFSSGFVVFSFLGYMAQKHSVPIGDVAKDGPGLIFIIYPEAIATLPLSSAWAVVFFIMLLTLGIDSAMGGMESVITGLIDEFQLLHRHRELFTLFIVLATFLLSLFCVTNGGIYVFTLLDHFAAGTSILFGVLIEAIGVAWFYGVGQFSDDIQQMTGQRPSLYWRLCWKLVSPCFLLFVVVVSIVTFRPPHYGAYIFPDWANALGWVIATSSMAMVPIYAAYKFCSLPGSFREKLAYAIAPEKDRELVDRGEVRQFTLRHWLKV

[35] = Ratio of drug level in Wistar rat brain to plasma at 1 mg/kg, ip measured after 35 mins by HPLC-MS/MS analysis; type: ADME, organism-based; conditions: read-out: BPR
[36] = test system: Rattus norvegicus; test: Cognitive enhancing effect in Hannover Wistar rat assessed as increase in novel object recognition index at 1 to 10 mg/kg, po administered 30 mins prior to recognition trail by novel object recognition test; type: functional, organism-based; conditions: dose 1-10 mg/kg
[37] = Drug uptake in Wistar rat brain at 3 mg/kg, ip measured after 35 mins by HPLC-MS/MS analysis; type: ADME, organism-based; conditions: read-out: Ct
[38] = Apparent permeability across apical to basolateral side in vinblastine-treated human Caco-2 cells expressing P-glycoprotein at 1 uM incubated for 120 mins by HPLC analysis; type: ADME
[39] = Drug uptake in Wistar rat brain at 10 mg/kg, ip measured after 35 mins by HPLC-MS/MS analysis; type: ADME, organism-based; conditions: read-out: Ct
[40] = target: Sodium-dependent noradrenaline transporter (Homo sapiens) (UniProt P23975); test: Displacement of [125I]RTI55 from human recombinant NET expressed in MDCK cells at 10 uM incubated for 3 hrs by radiometric scintillation counting analysis; type: cell-based
Sequence of Sodium-dependent noradrenaline transporter (Homo sapiens) (P23975 whole entry): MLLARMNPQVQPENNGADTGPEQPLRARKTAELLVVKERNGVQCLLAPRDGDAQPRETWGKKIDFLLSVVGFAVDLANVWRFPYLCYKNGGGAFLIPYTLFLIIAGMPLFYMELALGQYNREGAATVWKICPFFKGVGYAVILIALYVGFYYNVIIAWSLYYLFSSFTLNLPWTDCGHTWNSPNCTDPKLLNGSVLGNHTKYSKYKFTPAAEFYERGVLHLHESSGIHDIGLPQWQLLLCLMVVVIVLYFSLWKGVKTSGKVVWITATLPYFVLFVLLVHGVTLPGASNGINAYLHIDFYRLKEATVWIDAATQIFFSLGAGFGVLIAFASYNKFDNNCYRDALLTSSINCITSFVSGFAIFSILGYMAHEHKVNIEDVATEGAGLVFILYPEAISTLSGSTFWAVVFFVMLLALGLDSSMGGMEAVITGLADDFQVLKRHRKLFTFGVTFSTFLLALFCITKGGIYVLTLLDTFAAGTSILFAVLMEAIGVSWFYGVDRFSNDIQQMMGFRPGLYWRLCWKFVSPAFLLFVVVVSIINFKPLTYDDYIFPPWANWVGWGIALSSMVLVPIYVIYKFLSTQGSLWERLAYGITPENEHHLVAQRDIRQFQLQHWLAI

[41] = test system: Mus musculus; test: Cognitive enhancing effect in ip dosed scopolamine-induced amnesia NMRI mouse model assessed as increase in recognition index administered 30 mins prior to scopolamine injection by Y-maze test; type: functional; conditions: 0.5 h, read-out: MED
[42] = Plasma concentration in Wistar rat at 3 mg/kg, ip measured after 35 mins by HPLC-MS/MS analysis; type: ADME, organism-based
[43] = Drug uptake in Wistar rat brain at 1 mg/kg, ip measured after 35 mins by HPLC-MS/MS analysis; type: ADME, organism-based; conditions: read-out: Ct
[44] = target: 5-hydroxytryptamine receptor 2B (Homo sapiens) (UniProt P41595); test: Binding affinity to human recombinant 5-HT2B receptor assessed as displacement of radioligand at 10 uM by displacement binding assay
Sequence of 5-hydroxytryptamine receptor 2B (Homo sapiens) (P41595 whole entry): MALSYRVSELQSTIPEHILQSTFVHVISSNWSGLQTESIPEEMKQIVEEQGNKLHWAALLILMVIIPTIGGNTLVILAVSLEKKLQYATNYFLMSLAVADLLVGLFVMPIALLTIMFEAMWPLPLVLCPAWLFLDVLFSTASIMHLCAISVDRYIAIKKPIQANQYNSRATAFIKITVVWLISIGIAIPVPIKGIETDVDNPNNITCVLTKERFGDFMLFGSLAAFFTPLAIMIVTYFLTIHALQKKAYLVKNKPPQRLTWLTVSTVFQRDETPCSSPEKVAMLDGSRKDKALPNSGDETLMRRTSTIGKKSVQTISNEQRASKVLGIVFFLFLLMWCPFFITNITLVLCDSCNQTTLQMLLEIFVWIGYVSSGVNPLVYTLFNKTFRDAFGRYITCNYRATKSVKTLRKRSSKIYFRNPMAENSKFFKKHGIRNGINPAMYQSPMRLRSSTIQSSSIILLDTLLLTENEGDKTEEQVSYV

[45] = Flp-In-293, filed as positive allosteric modulator

Activity ([1]; Flp-In-293): 25%
SMILES: Cc1ccc(OC2CCN(C(=O)C(=O)Nc3ccc4c(ccn4C)c3)C2)cc1 (configuration not stated)

Activity ([1]; Flp-In-293): 37%
SMILES: Cc1ccc(CC2CCN(C(=O)NC(=O)c3ccc4c(ccn4C)c3)CC2)cc1

concentration at 1 h [2]: 492 nM
Kp at 1 h [4]: 1.17
concentration at 1 h [5]: 1930 nM
microsomal CLint at 1 µM [6]: 59 µL/min/mg
Kp at 1 h [7]: 1.53
microsomal CLint at 1 µM [8]: 51 µL/min/mg
concentration at 1 h [9]: 417 nM
EC50 [10]: 130 nM
Kp at 1 h [11]: 1.05
solubility kinetic [12]: 3 µM (≈ 1.16 µg/mL)
concentration at 1 h [13]: 1260 nM
concentration at 1 h [14]: 104 nM
microsomal CLint at 1 µM [15]: 33 µL/min/mg
concentration at 1 h [16]: 108 nM
SMILES: Cc1ccc(Oc2ccc(C(=O)C(=O)Nc3ccc4c(ccn4C)c3)cn2)cc1
Activity [3]: Active

Activity [17]: 13%
SMILES: Cc1ccc(OC2CCCN(C(=O)C(=O)Nc3ccc4c(ccn4C)c3)CC2)cc1 (configuration not stated)

Activity [17]: 16%
SMILES: Cc1ccc(O[C@H]2CC[C@@H](C(=O)NCc3ccc4c(ccn4C)c3)CC2)cc1

Activity ([1]; Flp-In-293): 7%
SMILES: Cc1ccc(CN2CCN(C(=O)C(=O)Cc3ccc4c(ccn4C)c3)CC2)cc1

Activity ([1]; Flp-In-293): 12%
SMILES: Cc1ccc(CN2CCC(C(=O)NCc3ccc4c(ccn4C)c3)CC2)cc1

concentration at 1 h [2]: 297 nM
Kp at 1 h [4]: 1.74
concentration at 1 h [5]: 1290 nM
Kp at 1 h [7]: 1.96
concentration at 1 h [9]: 170 nM
EC50 [10]: 120 nM
Kp at 1 h [11]: 1.95
concentration at 1 h [13]: 653 nM
concentration at 1 h [14]: 63 nM
concentration at 1 h [16]: 120 nM
SMILES: Cc1ccc(OC2CCN(C(=O)C(=O)Nc3ccc4c(ccn4C)c3)CC2)cc1
Activity [3]: Active

microsomal CLint at 1 µM [6]: 56 µL/min/mg
Activity ([1]; Flp-In-293): 10%
microsomal CLint at 1 µM [8]: 13 µL/min/mg
solubility kinetic [12]: 23 µM (≈ 9.3 µg/mL)
microsomal CLint at 1 µM [15]: 151 µL/min/mg
SMILES: Cc1ccc(CN2CCN(C(=O)C(=O)Nc3ccc4[nH]c(C)c(C)c4c3)CC2)cc1
Activity [18]: Toxic
Activity [19]: Toxic
Activity [20]: Toxic
Activity [21]: Toxic
Activity [22]: Toxic
Activity [23]: Toxic
Activity [24]: Toxic
Activity [25]: Toxic
Activity [26]: Toxic
Activity [27]: Toxic

Activity [1, 45]: 52%
solubility kinetic [12]: 3 µM (≈ 1.18 µg/mL)
SMILES: Cn1ccc2cc(NC(=O)C(=O)c3cnn(Cc4ccc(Cl)cc4)c3)ccc21

concentration at 35 min [28]: 8020 nM
concentration at 1 h [2]: 2210 nM
Kp at 1 h [4]: 0.99
concentration at 1 h [5]: 9920 nM
Kp at 35 min [30]: 1.38
Kp at 1 h [7]: 1.06
concentration at 35 min [32]: 746 nM
Kp at 35 min [33]: 1.4
inhibition [34]: > 50%
Kp at 35 min [35]: 1.43
concentration at 1 h [9]: 2270 nM
concentration at 35 min [37]: 3110 nM
Papp A→B at 2 h, 1 µM [38]: 55 ×10⁻⁶ cm/s
Kp at 1 h [11]: 1.04
concentration at 35 min [39]: 11100 nM
inhibition [40]: > 50%
concentration at 1 h [13]: 9470 nM
concentration at 1 h [14]: 647 nM
concentration at 35 min [42]: 2220 nM
concentration at 35 min [43]: 1010 nM
inhibition [44]: > 50%
concentration at 1 h [16]: 673 nM
SMILES: O=C(NCc1ccc2[nH]ccc2c1)N1CC(COc2ccc(C(F)(F)F)cc2)C1
Activity [18]: Non-Toxic
Activity [19]: Non-Toxic
Activity [3]: Active
minimal effective dose [29]: 1 mg/kg
Activity [31]: Active
Activity [20]: Non-Toxic
Activity [21]: Non-Toxic
Activity [22]: Non-Toxic
Activity [23]: Non-Toxic
Activity [36]: Active
Activity [24]: Non-Toxic
Activity [25]: Non-Toxic
minimal effective dose [41]: 1 mg/kg
Activity [26]: Non-Toxic
Activity [27]: Non-Toxic

microsomal CLint at 1 µM [6]: 192 µL/min/mg
microsomal CLint at 1 µM [8]: 21 µL/min/mg
EC50 [10]: 85 nM
solubility kinetic [12]: 16.5 µM (≈ 6.74 µg/mL)
microsomal CLint at 1 µM [15]: 214 µL/min/mg
SMILES: Cc1ccc(CN2CCN(C(=O)C(=O)Nc3ccc4c(c3)c(F)cn4C)CC2)cc1
Activity [18]: Toxic
Activity [19]: Toxic
Activity [20]: Toxic
Activity [21]: Toxic
Activity [22]: Toxic
Activity [23]: Toxic
Activity [24]: Toxic
Activity [25]: Toxic
Activity [26]: Toxic
Activity [27]: Toxic

Activity [1, 45]: 47%
SMILES: Cc1ccc(OC2CN(C(=O)C(=O)Nc3ccc4c(ccn4C)c3)C2)cc1
